This data set is described as follows: Release test of ganciclovir from scleral plug in phosphate buffered solution. The format is physicochemical. The note with it: phosphate buffered solution (0.1 M, pH 7.4). Here is the method:
The scleral plug produced in Example 1 was shaken in a phosphate buffered solution (0.1 M, pH 7.4) to release a drug (ganciclovir). The release medium was collected at predetermined intervals and replaced with a new buffer. These operations were repeated. Absorbance of the release medium at 254 nm was measured with a spectrophotometer, and an amount of the released drug was determined.

SMILES strings stand for the structures.

On to `Nc1nc(O)c2ncn(COC(CO)CO)c2n1` [ganciclovir], for which the “decomposition of drug during the release test” value is “does not decompose”.

The values above are taken from patent publication US6488938B1, “Polylactic acid scleral plug” (Santen Pharmaceutical Co., Ltd., priority 1997, dated 2002).
